Test systems include SK-MEL-5 melanoma; OVCAR-4 ovarian; HOP-62 NSCLC; SNB-19 CNS; BT-549 breast; MCF7 breast; UACC-62 melanoma; RXF 393 renal; MDA-MB-231 breast; EKVX NSCLC.
Test in all cases: inhibition of tumour cell growth, NCI panel, 48 h

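Protocol summary: plate cells (96-well), add compound at 5 concentrations, incubate 48 h, interpolate endpoints linearly. At the GI50, growth is halved. TGI: total growth inhibition.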 A value given as a limit tells only on which side of the number the result lay.

For the molecule `CC(C)[P+](c1ccccc1)(c1ccccc1)c1ccccc1`, the GI50 in the experiment on SK-MEL-5 melanoma is 2.22 µM; in the experiment on OVCAR-4 ovarian, 3.7 µM; in the experiment on HOP-62 NSCLC, 19 µM; with SNB-19 CNS, 5.54 µM; with BT-549 breast, 5.55 µM; with MCF7 breast, 3.69 µM. Besides, the GI50 is 4.2 µM with UACC-62 melanoma, 27.4 µM with RXF 393 renal and 10.6 µM in the experiment with MDA-MB-231 breast. Besides, the TGI with SK-MEL-5 melanoma is 7.9 µM; in the experiment on OVCAR-4 ovarian, 94.6 µM; with HOP-62 NSCLC, > 100 µM; with SNB-19 CNS it was > 100 µM; in the experiment with BT-549 breast, > 100 µM; with MCF7 breast, > 100 µM. Besides, the TGI in the experiment on UACC-62 melanoma, in the experiment with RXF 393 renal and with MDA-MB-231 breast was > 100 µM in each case.

For the molecule `N#C/C(=C/N1CCN(C(=O)c2ccco2)C1=S)C(=O)Nc1ccc(Cl)cc1`, the GI50 was 11.2 µM with SK-MEL-5 melanoma; 25.2 µM in the experiment with OVCAR-4 ovarian; 25.7 µM in the experiment with HOP-62 NSCLC; 27.6 µM in the experiment with SNB-19 CNS; 8.63 µM in the experiment on BT-549 breast; 21 µM in the experiment with MCF7 breast. Besides, the GI50 in the experiment on UACC-62 melanoma is 16.9 µM; in the experiment on RXF 393 renal, 13.1 µM; in the experiment with MDA-MB-231 breast, 18.4 µM. The TGI in the experiment on SK-MEL-5 melanoma is 24.7 µM; in the experiment on OVCAR-4 ovarian it was > 50 µM; with HOP-62 NSCLC, > 50 µM; in the experiment on SNB-19 CNS, > 50 µM; with BT-549 breast, 21.9 µM; in the experiment with MCF7 breast, > 50 µM. The TGI with UACC-62 melanoma was > 50 µM; in the experiment with RXF 393 renal, 44.9 µM; in the experiment on MDA-MB-231 breast it was > 50 µM.

As for `FC(F)c1ncc(-c2ccc(C(F)(F)F)cc2)c(NC2CCCCCC2)n1`, the GI50 with SK-MEL-5 melanoma, with OVCAR-4 ovarian, in the experiment on HOP-62 NSCLC, in the experiment with SNB-19 CNS, in the experiment with BT-549 breast and in the experiment with MCF7 breast was > 10 µM throughout. The GI50 in the experiment on UACC-62 melanoma, with RXF 393 renal and in the experiment with MDA-MB-231 breast was > 10 µM throughout. For the same molecule, the TGI in the experiment on SK-MEL-5 melanoma, in the experiment on OVCAR-4 ovarian, in the experiment on HOP-62 NSCLC, in the experiment on SNB-19 CNS, with BT-549 breast and in the experiment with MCF7 breast was > 10 µM each time. Further, the TGI with UACC-62 melanoma, in the experiment with RXF 393 renal and in the experiment on MDA-MB-231 breast was > 10 µM each time.

`C1CSC[C@H]2COC[C@@H](CSCCS1)S2`: the TGI in the experiment on SK-MEL-5 melanoma, in the experiment with OVCAR-4 ovarian, in the experiment on HOP-62 NSCLC, with SNB-19 CNS, in the experiment on EKVX NSCLC and in the experiment with BT-549 breast was > 100 µM in each case. Besides, the TGI in the experiment with MCF7 breast and in the experiment with MDA-MB-231 breast was > 100 µM each time.

As for `Cc1cc(=O)[nH]c(N/N=C/c2ccccc2O)n1`, the GI50 was 4.19 µM with SK-MEL-5 melanoma; 2.25 µM in the experiment on OVCAR-4 ovarian; 19 µM in the experiment with HOP-62 NSCLC; 24.5 µM in the experiment with SNB-19 CNS; 25.3 µM with BT-549 breast; 0.463 µM in the experiment with MCF7 breast. Moreover, the GI50 with UACC-62 melanoma is 9.92 µM; in the experiment with RXF 393 renal, 12.8 µM; in the experiment with MDA-MB-231 breast, 6.05 µM. Also, the TGI in the experiment on SK-MEL-5 melanoma is 19.1 µM; in the experiment with OVCAR-4 ovarian, > 100 µM; with HOP-62 NSCLC, > 100 µM; in the experiment on SNB-19 CNS it was > 100 µM; in the experiment with BT-549 breast it was > 100 µM; in the experiment on MCF7 breast, > 100 µM. The TGI in the experiment on UACC-62 melanoma was 51 µM; in the experiment with RXF 393 renal, 92.6 µM; in the experiment on MDA-MB-231 breast, > 100 µM.

As to `Nc1c(C(=O)c2cccc(C(O)CO)c2)cnn1-c1ccc(F)cc1` (stereo unspecified), the GI50 in the experiment with SK-MEL-5 melanoma, in the experiment with OVCAR-4 ovarian, in the experiment with HOP-62 NSCLC, with SNB-19 CNS, with BT-549 breast and in the experiment with MCF7 breast was > 25 µM each time. The GI50 in the experiment on UACC-62 melanoma, in the experiment on RXF 393 renal and in the experiment on MDA-MB-231 breast was > 25 µM each time. Besides, the TGI in the experiment on SK-MEL-5 melanoma, in the experiment on OVCAR-4 ovarian, in the experiment with HOP-62 NSCLC, in the experiment with SNB-19 CNS, in the experiment on BT-549 breast and with MCF7 breast was > 25 µM throughout. Besides, the TGI in the experiment on UACC-62 melanoma, in the experiment on RXF 393 renal and in the experiment on MDA-MB-231 breast was > 25 µM in each case.

Turning to `CC(C)(C)c1ccc(C2CC(=O)C3=C(C2)Nc2ccccc2N(C(=O)c2ccccc2Cl)C3c2ccc(F)cc2)cc1` (stereo unspecified), the GI50 in the experiment with SK-MEL-5 melanoma, in the experiment with OVCAR-4 ovarian, in the experiment with HOP-62 NSCLC, in the experiment on SNB-19 CNS, in the experiment on BT-549 breast and in the experiment on MCF7 breast was > 100 µM each time. The GI50 in the experiment on UACC-62 melanoma, in the experiment on RXF 393 renal and with MDA-MB-231 breast was > 100 µM in each case. For the same molecule, the TGI in the experiment with SK-MEL-5 melanoma, in the experiment on OVCAR-4 ovarian, in the experiment with HOP-62 NSCLC, with SNB-19 CNS, in the experiment with BT-549 breast and in the experiment with MCF7 breast was > 100 µM each time. Moreover, the TGI with UACC-62 melanoma, in the experiment with RXF 393 renal and in the experiment on MDA-MB-231 breast was > 100 µM each time.

As for `COc1cc(OC)c2c(=O)cc(-c3ccccc3OCc3ccccc3)oc2c1OC`, the GI50 is 1.84 µM with SK-MEL-5 melanoma; 6.32 µM in the experiment on OVCAR-4 ovarian; 10.7 µM with HOP-62 NSCLC; 41.7 µM with SNB-19 CNS; 5.54 µM in the experiment on EKVX NSCLC; 3.76 µM in the experiment with BT-549 breast. The GI50 was 4.14 µM in the experiment on UACC-62 melanoma, > 100 µM in the experiment with RXF 393 renal and 5.6 µM in the experiment with MDA-MB-231 breast. The TGI is 4.33 µM with SK-MEL-5 melanoma; > 100 µM in the experiment on OVCAR-4 ovarian; 44.4 µM in the experiment on HOP-62 NSCLC; > 100 µM in the experiment with SNB-19 CNS; 91.2 µM in the experiment on EKVX NSCLC; 24.6 µM in the experiment on BT-549 breast. Besides, the figures for the TGI with UACC-62 melanoma, with RXF 393 renal and in the experiment on MDA-MB-231 breast were 17.7 µM, > 100 µM and 71.8 µM, respectively.

As to `CN(C)C=N[C@@H](C(=O)O)c1ccccc1`, the TGI with SK-MEL-5 melanoma, in the experiment on OVCAR-4 ovarian, in the experiment with HOP-62 NSCLC, in the experiment on SNB-19 CNS, in the experiment with EKVX NSCLC and in the experiment with BT-549 breast was > 100 µM in each case. Further, the TGI in the experiment with MCF7 breast, in the experiment with UACC-62 melanoma and in the experiment on MDA-MB-231 breast was > 100 µM each time.

Regarding `CC(C)C[C@H](NC(=O)Cn1cccc(CNC(=O)c2ccccc2)c1=O)B(O)O`, the GI50 with SK-MEL-5 melanoma is 0.158 µM; in the experiment with OVCAR-4 ovarian it was 0.897 µM; in the experiment on HOP-62 NSCLC, 1.21 µM; in the experiment on SNB-19 CNS, 0.495 µM; with BT-549 breast, 0.162 µM; in the experiment on MCF7 breast, 0.409 µM. Moreover, the GI50 in the experiment with UACC-62 melanoma was 0.486 µM; in the experiment with RXF 393 renal, 0.316 µM; with MDA-MB-231 breast, 0.567 µM. In addition, the TGI in the experiment on SK-MEL-5 melanoma was 0.842 µM; with OVCAR-4 ovarian, > 77 µM; in the experiment with HOP-62 NSCLC, 6.38 µM; with SNB-19 CNS, > 100 µM; in the experiment on BT-549 breast it was 1.54 µM; with MCF7 breast, > 100 µM. In addition, the TGI was found to be 3.54 µM with UACC-62 melanoma, 1.1 µM in the experiment with RXF 393 renal and 3.06 µM in the experiment on MDA-MB-231 breast.

Turning to `COc1cc(F)c(F)cc1C(=O)c1cnc(NC2CCN(S(C)(=O)=O)CC2)nc1N`, the GI50 in the experiment on SK-MEL-5 melanoma is 2.07 µM; in the experiment with OVCAR-4 ovarian, 6.4 µM; with HOP-62 NSCLC, 6.17 µM; in the experiment on SNB-19 CNS, 2.32 µM; with BT-549 breast, 4.29 µM; with MCF7 breast, 0.76 µM. Further, the GI50 in the experiment on UACC-62 melanoma was 3.13 µM; in the experiment with RXF 393 renal, 3.01 µM; with MDA-MB-231 breast it was 3.04 µM. Further, the TGI was > 14.4 µM in the experiment with SK-MEL-5 melanoma; > 25 µM in the experiment on OVCAR-4 ovarian; > 22.2 µM in the experiment on HOP-62 NSCLC; > 25 µM in the experiment with SNB-19 CNS; 18.6 µM with BT-549 breast; > 25 µM in the experiment with MCF7 breast. The values for the TGI in the experiment on UACC-62 melanoma, with RXF 393 renal and in the experiment on MDA-MB-231 breast were 7.63 µM, 7.18 µM and > 25 µM, respectively.

`CC(C)C1(NC(=O)C2CC3c4cccc5[nH]cc(c45)CC3N(C)C2)OC2(O)C3CCCN3C(=O)C(Cc3ccccc3)N2C1=O` (stereo unspecified): the TGI in the experiment with SK-MEL-5 melanoma, with OVCAR-4 ovarian, with HOP-62 NSCLC, in the experiment with SNB-19 CNS, in the experiment on EKVX NSCLC and with BT-549 breast was > 100 µM in each case. The TGI in the experiment on MCF7 breast was > 100 µM; in the experiment on UACC-62 melanoma, > 100 µM; with MDA-MB-231 breast, 56.7 µM.

As for `O=C1OCC2=C1C(c1cccc(C(F)(F)F)c1)c1cc3c(cc1N2CCO)OCCO3` (stereo unspecified), the GI50 was 0.997 µM with SK-MEL-5 melanoma; 6.41 µM in the experiment on OVCAR-4 ovarian; 1.31 µM in the experiment on HOP-62 NSCLC; 1.63 µM in the experiment on SNB-19 CNS; 1.33 µM with EKVX NSCLC; 1.81 µM in the experiment with BT-549 breast. Also, the GI50 was 1.09 µM with MCF7 breast, 0.901 µM with UACC-62 melanoma and 1.7 µM with MDA-MB-231 breast. The TGI with SK-MEL-5 melanoma is 6.97 µM; with OVCAR-4 ovarian it was > 33.3 µM; in the experiment on HOP-62 NSCLC it was > 33.3 µM; with SNB-19 CNS, > 33.3 µM; in the experiment with EKVX NSCLC, > 33.3 µM; in the experiment with BT-549 breast, > 33.3 µM. Further, the TGI in the experiment on MCF7 breast, in the experiment with UACC-62 melanoma and in the experiment with MDA-MB-231 breast was > 33.3 µM throughout.

The values are drawn from PubChem BioAssay (NCI).
